Experimental findings from US20240141330A1, “METHODS AND COMPOSITIONS FOR MUTAGENESIS SCREENING IN MAMMALIAN CELLS” (THE BOARD OF REGENTS OF THE UNIVERSITY OF TEXAS SYSTEM, priority 2021, published 2024) are described below.

In the test the test system is K562 cells harboring doxycycline-inducible BCR-ABL1 variants. Particulars: FIG. 7C. An excerpt: Values shown are averages±standard error of the mean (SEM) of 2 biological replicates.
For this example, the K562 CML cell line was used as it harbored the BCR-ABL1 fusion gene/protein and was highly sensitive to BCR-ABL1 inhibitors.
LentiMutate may create large and small indels because the HIV-1 RT is known to switch templates and have low processivity. […] As a comparison, also tested was the 35INS variant, a BCR-ABL variant detected in patient samples that truncates BCR-ABL at the end of the kinase domain, producing a kinase dead protein, due to the insertion and usage of a 35 bp sequence in an intron that acts as a novel splicing site.

Molecules are shown by their SMILES. Like-named read-outs stand apart in the source and are kept apart here.

In the case of `O=C(Nc1ccc(OC(F)(F)Cl)cc1)c1cnc(N2CC[C@@H](O)C2)c(-c2cc[nH]n2)c1` [asciminib], the “Resistance conferred by BCR-ABL1 variant” value by setting is: (deletions in ABL1 (−SV11)) “did not”; (deletions in BCR (−SV8 and −NTCD)) “conferred resistance”.
